From article PMC4242080, “NMR structure of the water soluble Aβ17–34 peptide” (Bioscience Reports, 2014)

Assay: Peptide solubility in aqueous buffers and water
Method: These peptides contained two glutamate or arginine residues at the N- and C-termini for increased solubility. The full amino acid sequence of the purchased Aβ was […] (Peptide 2.0 Inc. Company) and […] (Sigma-Aldrich). The peptide mass was verified using MALDI-TOF mass spectroscopy. To dissolve the peptides, phosphate and acetate aqueous buffers were prepared. None of the buffers contained hydrophobic solvents known to solubilize and stabilize α-helices (i.e. TFE or HFPI) or surfactants known to dissolve hydrophobic peptides (i.e. SDS). Henceforth, the Aβ17–34 peptide refers to the peptide flanked by two glutamates.
To solubilize Aβ, several approaches were taken. One approach was to add two arginines at the N- and C-termini. […] Another approach was to add two glutamic acids at the N- and C-termini.

| effect of terminal residue addition on solubility | solubility in water | solubility in 50 mM acetate buffer at pH 7 (pH 7) | solubility in 50 mM phosphate buffer at pH 7 (pH 7) | Structure (SMILES) | solubility in acetate and phosphate buffers at pH 1, 7 and 10 (acetate and phosphate aqueous buffers, pH 1, 7 and 10, no TFE, HFPI or SDS, compared with peptide without flanking residues) |
| --- | --- | --- | --- | --- | --- |
|  |  |  |  | CC[C@H](C)[C@H](NC(=O)[C@H](C)NC(=O)CNC(=O)[C@H](CCCCN)NC(=O)[C@H](CC(N)=O)NC(=O)[C@H](CO)NC(=O)CNC(=O)[C@@H](NC(=O)[C@H](CC(=O)O)NC(=O)[C@H](CCC(=O)O)NC(=O)[C@H](C)NC(=O)[C@H](Cc1ccccc1)NC(=O)[C@H](Cc1ccccc1)NC(=O)[C@@H](NC(=O)[C@H](CC(C)C)NC(=O)[C@H](CCCNC(=N)N)NC(=O)[C@@H](N)CCCNC(=N)N)C(C)C)C(C)C)C(=O)N[C@H](C(=O)NCC(=O)N[C@@H](CC(C)C)C(=O)N[C@@H](CCCNC(=N)N)C(=O)N[C@@H](CCCNC(=N)N)C(=O)O)[C@@H](C)CC | did not improve solubility |
| improved solubility drastically | not in water | soluble | soluble | CC[C@H](C)[C@H](NC(=O)[C@H](C)NC(=O)CNC(=O)[C@H](CCCCN)NC(=O)[C@H](CC(N)=O)NC(=O)[C@H](CO)NC(=O)CNC(=O)[C@@H](NC(=O)[C@H](CC(=O)O)NC(=O)[C@H](CCC(=O)O)NC(=O)[C@H](C)NC(=O)[C@H](Cc1ccccc1)NC(=O)[C@H](Cc1ccccc1)NC(=O)[C@@H](NC(=O)[C@H](CC(C)C)NC(=O)[C@H](CCC(=O)O)NC(=O)[C@@H](N)CCC(=O)O)C(C)C)C(C)C)C(=O)N[C@H](C(=O)NCC(=O)N[C@@H](CC(C)C)C(=O)N[C@@H](CCC(=O)O)C(=O)N[C@@H](CCC(=O)O)C(=O)O)[C@@H](C)CC [Aβ17–34 peptide] |  |
